# Columns and labels:
# Type in all cases: cell-based, mouse
# [1] = tested on: βTC-6 cells; assay: Calcium spiking frequency (Fluo-8) after 810 nm PBM exposure, pharmacologic studies
# Procedure: Cell Culture. […] Cell passage was performed weekly with 0.25% Trypsin-EDTA. Samples were prepared by seeding βTC-6 cells on glass coverslips in low glucose media. These samples were used for experimentation between days 2 through 5. All cells were incubated at 37° C. in a 5% CO2 environment.
# PBM Parameters. A Cytonsys (Austin, TX) 810 nm near-infrared laser was used to perform all experimentation. […] Herein, all βTC-6 samples were exposed to 810 nm for 1 minute with an irradiance of 150 mW/cm^2, resulting in a fluence of 9 J/cm^2. To measure the bulk temperature rise that was due to laser exposure, an Omega HH42A thermistor was used before and after irradiation.
# (§1) Live Cell Imaging. For calcium and mitochondrial superoxide (mROS) detection, the cells were stained with Fluo-8 (0.8 μM, Abcam, Cambridge, UK), Mitosox (5 μM, Thermo-Fisher, Waltham, MA) and 1 drop/mL of Nucblue (Thermo-Fisher, Waltham, MA) for detection of intracellular calcium, mROS, and nucleic acid, respectively. The fluorescent dye DAF-FM (5 μM, Thermo-Fisher) was used to detect and measure cytosolic nitric oxide (NO). Hanks balanced salt solution (HBSS) was used (H8264, Sigma, St. Louis, MO) unless stated otherwise. Samples were stained at 37° C. for 30 minutes before being washed and mounted onto the imaging chamber.
# Calcium Activity Analysis. Regions of interest (ROIs) were placed on individual cells using the nucleic acid staining and transferred to perform and calculate mean fluorescent intensity over time with background subtraction. Approximately 100 to 200 cells were monitored for each data point, and the results were averaged. A conservative moving average threshold (10 data points) with a 10% cutoff was used to determine a calcium spike. […] The active population was defined by the total number of active cells divided by the number of cells analyzed. The average spiking frequency of these active cells was then determined at each time point. Measurements were taken using Nikon Elements software and data analysis was carried out using Microsoft Excel. […]
# [2] = tested on: βTC-6 insulinoma cells; assay: Intracellular calcium rise (Fluo-8) after electric field exposure, blocking experiment; details: verapamil 100 μM, incubated 30 minutes before 3 V/cm EF for 15 min, HBSS
# Procedure: Calcium labeling and depletion. Samples were washed with HBSS (Sigma) and incubated with 0.8 μM Fluo-8 (Abcam) for 30 minutes. NucBlue solution (Thermo) was added for 15 min in accordance to the manufacturer's recommended concentration to stain the nuclei. Cells were washed again and mounted onto the chamber. Changes in the Fluo-8 fluorescent intensity were monitored and recorded. Fluorescent images were acquired for 2 min at 5 s intervals with a 250 ms exposure time before and after the DCEF was applied. Image analysis was performed using the Nikon Elements image processor by identifying a ROI selection on selected nuclei with mean intensity of Fluo-8 over time. […]
# Calcium Fluorescent Microscopy. […] Measurements for calcium rise recorded a single static image before and after EF exposure, while calcium spiking was recorded over 2 minutes before and after EFS with a 5 second sampling interval.
# Calcium Image Analysis. For calcium rise, the mean intensity of clusters in the sample were measured at 0 minute (Pre) and 15 minute (Post) time points using Nikon Elements. Background subtraction was then performed and the percent change was determined by comparing the post-exposure to the pre-exposure mean intensities. […] The mean intensity over time was measured for both the pre and post imaging sessions. […]
# [3] = tested on: βTC-6 cells; assay: Mitochondrial superoxide (MitoSOX intensity) after 810 nm PBM exposure; details: ascorbic acid 2.5 mM, 9 J/cm^2
# Procedure: PBM Parameters. A Cytonsys (Austin, TX) 810 nm near-infrared laser was used to perform all experimentation. […] The energy density of 9 J/cm^2 was previously shown to have therapeutic effects on hepatic tissue in a diabetic state. […] Herein, all βTC-6 samples were exposed to 810 nm for 1 minute with an irradiance of 150 mW/cm^2, resulting in a fluence of 9 J/cm^2. To measure the bulk temperature rise that was due to laser exposure, an Omega HH42A thermistor was used before and after irradiation.
# as §1
# Pharmacologic Studies. All drugs were added to the staining buffer. Samples were treated with each drug for 30 minutes before imaging. For L-type VGCC blocking, Verapamil (100 μM, V4629, Sigma) was applied. Capsazepine (10 μM, C191, Sigma) was added as a TRPV1 antagonist. […]
structure (smiles),measurement,setting,value
NCCOB(c1ccccc1)c1ccccc1 [2-APB],calcium spiking frequency following PBM,"[1]; 2-APB 10 μM (FIG. 10B legend 20 μM), 30 minutes, 9 J/cm^2",significantly impede such an increase in the calcium spiking frequency by PBM
COc1ccc(CCN(C)CCCC(C#N)(c2ccc(OC)c(OC)c2)C(C)C)cc1OC (centres unmarked) [Verapamil],increase in intracellular calcium level in response to EF,[2],effectively blocked the increase in intracellular calcium level
"O=C1O[C@H]([C@@H](O)CO)C(O)=C1O [ascorbic acid, Ascorbic Acid]","calcium spiking frequency of active cells following PBM, AA-treated versus control","[1]; ascorbic acid 2.5 mM, 9 J/cm^2",no significant difference in the calcium spiking frequency analysis between the AA-treated and control cells until the 10-minute time point
same,MitoSOX intensity following PBM (superoxide),[3],significant reduction in the MitoSOX intensity
"O=C1CN(/N=C/c2ccc(-c3ccc([N+](=O)[O-])cc3)o2)C(O)=N1 [dantrolene, Dantrolene]","calcium spiking frequency following PBM, versus control","[1]; dantrolene 50 μM, 30 minutes, 9 J/cm^2, difference only noticeable at the 15-minute mark",decreased in comparison to the control

# — patent publication US11834640B2, “Device and uses thereof for treating diabetes” (Board of Regents, The University of Texas System, priority 2019, dated 2023)
